Among the data in the NIST ThermoML archive (doi:10.1016/j.fluid.2005.04.021) are activity coefficient values, retold here.

This data set in a line: activity coefficient (dimensionless); of the first substance listed, at infinite dilution; xn = mol fraction of the nth substance listed. The following applies: Liquid, x1 = 0.

Numbers after ± are expanded uncertainties.

Take `C=CCCCCC` [1-heptene] + CCCCCCCCCCCCCC[P+](CCCCCC)(CCCCCC)CCCCCC.FC(F)(F)C(F)(F)[P-](F)(F)(F)(C(F)(F)C(F)(F)F)C(F)(F)C(F)(F)F: the activity coefficient (308.15 K) turned out to be 0.59 ± 0.06, the activity coefficient (318.15 K) is 0.58 ± 0.06 and the activity coefficient (328.15 K) turned out to be 0.57 ± 0.06.

Regarding `C#CCCCCC` [1-heptyne] + CCCCCCCCCCCCCC[P+](CCCCCC)(CCCCCC)CCCCCC.FC(F)(F)C(F)(F)[P-](F)(F)(F)(C(F)(F)C(F)(F)F)C(F)(F)C(F)(F)F, the activity coefficient amounted to 0.46 ± 0.05 (308.15 K), 0.46 ± 0.05 (318.15 K) and 0.45 ± 0.05 (328.15 K).

Consider `C#CCCCC` [1-hexyne] + CCCCCCCCCCCCCC[P+](CCCCCC)(CCCCCC)CCCCCC.FC(F)(F)C(F)(F)[P-](F)(F)(F)(C(F)(F)C(F)(F)F)C(F)(F)C(F)(F)F, for which the activity coefficient was determined as 0.42 ± 0.05 (308.15 K), 0.42 ± 0.05 (318.15 K) and 0.41 ± 0.05 (328.15 K).

Turning to `C#CCCCCCC` [1-octyne] + CCCCCCCCCCCCCC[P+](CCCCCC)(CCCCCC)CCCCCC.FC(F)(F)C(F)(F)[P-](F)(F)(F)(C(F)(F)C(F)(F)F)C(F)(F)C(F)(F)F, the activity coefficient is 0.57 ± 0.06 (308.15 K), 0.52 ± 0.06 (318.15 K) and 0.51 ± 0.06 (328.15 K).

For the compound `c1ccccc1` [benzene] + CCCCCCCCCCCCCC[P+](CCCCCC)(CCCCCC)CCCCCC.FC(F)(F)C(F)(F)[P-](F)(F)(F)(C(F)(F)C(F)(F)F)C(F)(F)C(F)(F)F, the activity coefficient (308.15 K) stood at 0.2 ± 0.06, the activity coefficient (318.15 K) was 0.19 ± 0.06 and the activity coefficient (328.15 K) came out at 0.19 ± 0.06.

Consider `C1CCCCCC1` [cycloheptane] + CCCCCCCCCCCCCC[P+](CCCCCC)(CCCCCC)CCCCCC.FC(F)(F)C(F)(F)[P-](F)(F)(F)(C(F)(F)C(F)(F)F)C(F)(F)C(F)(F)F, for which the activity coefficient turned out to be 0.54 ± 0.06 (308.15 K), 0.52 ± 0.06 (318.15 K) and 0.49 ± 0.06 (328.15 K).

On to `C1CCCCC1` [cyclohexane] + CCCCCCCCCCCCCC[P+](CCCCCC)(CCCCCC)CCCCCC.FC(F)(F)C(F)(F)[P-](F)(F)(F)(C(F)(F)C(F)(F)F)C(F)(F)C(F)(F)F, for which the activity coefficient by setting is: (308.15 K) 0.49 ± 0.06; (318.15 K) 0.48 ± 0.05; (328.15 K) 0.44 ± 0.05.

As for `C1CCCC1` [cyclopentane] + CCCCCCCCCCCCCC[P+](CCCCCC)(CCCCCC)CCCCCC.FC(F)(F)C(F)(F)[P-](F)(F)(F)(C(F)(F)C(F)(F)F)C(F)(F)C(F)(F)F, the activity coefficient was determined as 0.42 ± 0.05 (308.15 K), 0.42 ± 0.05 (318.15 K) and 0.41 ± 0.05 (328.15 K).

As to `CCO` [ethanol] + CCCCCCCCCCCCCC[P+](CCCCCC)(CCCCCC)CCCCCC.FC(F)(F)C(F)(F)[P-](F)(F)(F)(C(F)(F)C(F)(F)F)C(F)(F)C(F)(F)F, the activity coefficient (308.15 K) was 1.2 ± 0.09, the activity coefficient (318.15 K) worked out at 1.07 ± 0.08 and the activity coefficient (328.15 K) is 0.93 ± 0.07.

Take `CCCCCCC` [heptane] + CCCCCCCCCCCCCC[P+](CCCCCC)(CCCCCC)CCCCCC.FC(F)(F)C(F)(F)[P-](F)(F)(F)(C(F)(F)C(F)(F)F)C(F)(F)C(F)(F)F: the activity coefficient came out at 0.74 ± 0.06 (308.15 K), 0.72 ± 0.06 (318.15 K) and 0.7 ± 0.06 (328.15 K).

As to `C=CCCCC` [hex-1-ene] + CCCCCCCCCCCCCC[P+](CCCCCC)(CCCCCC)CCCCCC.FC(F)(F)C(F)(F)[P-](F)(F)(F)(C(F)(F)C(F)(F)F)C(F)(F)C(F)(F)F, the activity coefficient by setting is: (308.15 K) 0.53 ± 0.06; (318.15 K) 0.53 ± 0.06; (328.15 K) 0.52 ± 0.06.

With `CCCCCC` [hexane] + CCCCCCCCCCCCCC[P+](CCCCCC)(CCCCCC)CCCCCC.FC(F)(F)C(F)(F)[P-](F)(F)(F)(C(F)(F)C(F)(F)F)C(F)(F)C(F)(F)F, the activity coefficient reads like this: (308.15 K) 0.66 ± 0.06; (318.15 K) 0.64 ± 0.06; (328.15 K) 0.62 ± 0.06.

As to `CO` [methanol] + CCCCCCCCCCCCCC[P+](CCCCCC)(CCCCCC)CCCCCC.FC(F)(F)C(F)(F)[P-](F)(F)(F)(C(F)(F)C(F)(F)F)C(F)(F)C(F)(F)F, the activity coefficient is, setting by setting: (308.15 K) 1.23 ± 0.09; (318.15 K) 1.14 ± 0.08; (328.15 K) 1.01 ± 0.07.

For the compound `C=CCCCCCC` [oct-1-ene] + CCCCCCCCCCCCCC[P+](CCCCCC)(CCCCCC)CCCCCC.FC(F)(F)C(F)(F)[P-](F)(F)(F)(C(F)(F)C(F)(F)F)C(F)(F)C(F)(F)F, the activity coefficient (308.15 K) was 0.67 ± 0.06, the activity coefficient (318.15 K) came out at 0.65 ± 0.06 and the activity coefficient (328.15 K) amounted to 0.64 ± 0.06.

With `CCCCCCCC` [octane] + CCCCCCCCCCCCCC[P+](CCCCCC)(CCCCCC)CCCCCC.FC(F)(F)C(F)(F)[P-](F)(F)(F)(C(F)(F)C(F)(F)F)C(F)(F)C(F)(F)F, the activity coefficient was found to be 0.84 ± 0.06 (308.15 K), 0.8 ± 0.06 (318.15 K) and 0.77 ± 0.06 (328.15 K).

Regarding `CCCCC` [pentane] + CCCCCCCCCCCCCC[P+](CCCCCC)(CCCCCC)CCCCCC.FC(F)(F)C(F)(F)[P-](F)(F)(F)(C(F)(F)C(F)(F)F)C(F)(F)C(F)(F)F, the activity coefficient is 0.61 ± 0.06 (308.15 K), 0.6 ± 0.06 (318.15 K) and 0.59 ± 0.06 (328.15 K).

For the compound `CCCO` [propan-1-ol] + CCCCCCCCCCCCCC[P+](CCCCCC)(CCCCCC)CCCCCC.FC(F)(F)C(F)(F)[P-](F)(F)(F)(C(F)(F)C(F)(F)F)C(F)(F)C(F)(F)F, the activity coefficient reads like this: (308.15 K) 1.16 ± 0.09; (318.15 K) 1 ± 0.07; (328.15 K) 0.87 ± 0.06.
